# Results from patent publication US10329304B2, “Compounds and methods for inhibition of hedgehog signaling and phosphodiesterase” (Vanderbilt University, priority 2014, dated 2019).
# Values joined by “and” are separate entries in the source; they are usually repeats but may differ in a detail not shown here. Identical values can stand only once. “Also recorded” adds a separate entry of the source. Like-named read-outs stand apart in the source and are kept apart here.
# What was measured:
# H82 = test: Cell killing EC50 in H82 lung cancer cells (Table 10); type: cell-based; conditions: human cancer cells
# Description: It is anticipated that compounds disclosed herein could serve as an anti-tumor, anti-angiogenic, anti-metastatic, agent in the treatment of cancer. To this end, a series of clinically relevant cancer lines were assayed and the cell-killing EC50s for compounds according to the subject matter disclosed herein are provided in Table 10.
# MCF7 = test: Cell viability assay (CellTiter-Blue, 72 hr); type: cell-based; conditions: human cancer cells
# Description: (§1) Cancer cell lines were seeded in 96 well tissue culture plate at a low density (10,000 cells per well) and treated with varying concentrations of Eggmanone. After 72 hr incubation, CellTiter-Blue Cell Viability Assay (Promega, Madison, Wis.) was then performed according to manufacturer's protocol. Absorbance was then measured in a Modulus Microplate reader (Promega, Madison, Wis.) at 590 nm and compared to cells treated with DMSO.
# as §1, with “density” for “density (10,000 cells per well)”, “compounds identified in Table 7.” for “Eggmanone.”
# PDE4D3 = target: T1, PDE4D3 (Homo sapiens, UniProt Q08499); test: In vitro PDE assay; type: biochemical; conditions: for IC50: Table 9A; for Mode of inhibition (Lineweaver-Burk, Eadie Hofstee): purified PDE4D3
# T1 construct: purchased BPS Biosciences (San Diego, Calif.); kinetic studies by Millipore (St. Louis, Mo.)
# Outline: (§2)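 Recombinant human PDE incubated 60 min at room temperature in duplicate with 100 nM FAM-cAMP in 10 mM Tris-HCl pH 7.4, 10 mM MgCl2, 0.05% Tween 20, 1% DMSO. FAM-AMP product captured by bead binding agent for 60 min, then fluorescence read at 485/528 nm.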
# PDE4D2 = target: T2, PDE4D2 (Homo sapiens, UniProt Q08499); test: In vitro PDE assay; type: biochemical; conditions: for IC50: Table 9A
# T2 construct: purchased BPS Biosciences (San Diego, Calif.)
# Outline: as §2
# [1] = tested on: Hedgehog signaling (Gli-Luc reporter); test: Hh Gli-Luciferase reporter assay in Shh-Light2 cells; type: cell-based, mouse; conditions: for Sonic hedgehog (SHH)-responsive Gli-luciferase reporter activity: Shh-conditioned media; for Purmorphamine-induced Gli-Luc reporter activity: purmorphamine 3 μM; for IC50 / EC50: Mus musculus, Shh Light2; for EC50: Table 9A, read-out: Shh Light2 Luc EC50
# Outline: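 Shh-Light2 cells with stable Gli-luciferase were stimulated by Shh-conditioned medium (or 3 μM purmorphamine or 20 nM SAG), or transfected with Gli-2, PDE4D3 or DN-PDE4D3. Overnight compound incubation preceded Steady-Glo read-out, normalized to CellTiter-Glo.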
# zebrafish embryos = test: Zebrafish embryo phenotypic assay (ZF); type: in vivo; conditions: for Hh-deficient mutant phenotype in embryos: 2 μM from 4 hpf where stated
# Outline: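 Wild-type AB zebrafish embryos (~10) in E3 egg water dosed at 5 hours post-fertilization from 1 mM or 10 mM DMSO stock. Scored for gross morphological changes at 24, 48 and 72 hpf. Screening run used 5 μM final, added ~4 hpf, incubated at 28.5 °C.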
# SW480 = test: Cell viability assay (CellTiter-Blue, 72 hr); type: cell-based, Human; conditions: SW480; human cancer cells; read-out: CELL KILLING EC50 (μM) Colon SW480
# Description: as §1
# as §1, with “density” for “density (10,000 cells per well)”, “compounds identified in Table 7.” for “Eggmanone.”
# DU145 = test: Cell viability assay (CellTiter-Blue, 72 hr); type: cell-based, Human
# Description: as §1
# as §1, with “density” for “density (10,000 cells per well)”, “compounds identified in Table 7.” for “Eggmanone.”
# HeLa = test: Cell viability assay (CellTiter-Blue, 72 hr); type: cell-based, Human
# Description: as §1
# as §1, with “density” for “density (10,000 cells per well)”, “compounds identified in Table 7.” for “Eggmanone.”
# PDE4D = PDE4D (Homo sapiens, UniProt Q08499); test: PDE4 inhibition assay (PDE4D IC50); type: biochemical; conditions: read-out: PDE4D IC50
# Outline: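 PDE4D incubated 60 min at room temperature in duplicate with 100 nM FAM-cAMP and compound (1% DMSO final) in Tris-HCl pH7.4, 10 mM MgCl2, 0.05% Tween 20. FAM-AMP detected with binding-agent nanobeads after a further 60 min, read at 485/528 nm.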
# [2] = DU-145, human cancer cells, read-out: CELL KILLING EC50 (μM) Prostate DU145
# [3] = human cancer cells, read-out: CELL KILLING EC50 (μM) Cervix HeLa
# T2 sequence (Q08499 303-809): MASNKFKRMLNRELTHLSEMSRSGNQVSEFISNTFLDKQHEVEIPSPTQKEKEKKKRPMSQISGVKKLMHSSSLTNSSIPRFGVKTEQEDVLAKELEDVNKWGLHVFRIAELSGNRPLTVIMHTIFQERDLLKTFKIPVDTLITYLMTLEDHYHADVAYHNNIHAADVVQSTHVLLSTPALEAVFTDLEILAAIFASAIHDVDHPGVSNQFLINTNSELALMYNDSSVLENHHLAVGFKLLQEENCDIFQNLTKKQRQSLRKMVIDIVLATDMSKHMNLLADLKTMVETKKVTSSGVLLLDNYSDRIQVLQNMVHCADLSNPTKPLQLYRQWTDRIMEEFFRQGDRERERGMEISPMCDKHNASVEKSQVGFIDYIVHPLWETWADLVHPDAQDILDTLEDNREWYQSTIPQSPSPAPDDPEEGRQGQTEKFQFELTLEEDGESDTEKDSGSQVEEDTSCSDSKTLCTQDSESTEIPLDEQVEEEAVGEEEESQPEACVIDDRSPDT
# T1 sequence (Q08499 1-673 isoform Q08499-2): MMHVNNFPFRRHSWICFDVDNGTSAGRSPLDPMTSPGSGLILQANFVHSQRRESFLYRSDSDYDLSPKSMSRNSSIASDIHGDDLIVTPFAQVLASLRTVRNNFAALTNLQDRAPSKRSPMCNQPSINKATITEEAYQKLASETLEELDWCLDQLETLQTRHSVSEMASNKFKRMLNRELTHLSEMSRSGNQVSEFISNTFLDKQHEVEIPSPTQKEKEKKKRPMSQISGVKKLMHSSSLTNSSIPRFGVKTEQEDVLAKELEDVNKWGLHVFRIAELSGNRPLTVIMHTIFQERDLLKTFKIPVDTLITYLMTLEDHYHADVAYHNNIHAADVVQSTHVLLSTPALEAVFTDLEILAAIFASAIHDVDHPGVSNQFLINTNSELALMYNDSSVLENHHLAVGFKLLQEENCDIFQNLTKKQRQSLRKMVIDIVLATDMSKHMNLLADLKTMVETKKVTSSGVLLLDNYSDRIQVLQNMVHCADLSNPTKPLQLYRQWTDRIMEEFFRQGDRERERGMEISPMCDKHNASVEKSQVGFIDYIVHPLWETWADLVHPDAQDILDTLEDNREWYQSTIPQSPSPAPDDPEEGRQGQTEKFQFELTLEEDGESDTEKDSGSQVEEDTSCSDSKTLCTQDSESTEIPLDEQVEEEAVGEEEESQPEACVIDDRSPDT
SMILES,IC50 (PDE4D3) [µM],IC50 (PDE4D2) [µM],IC50 (PDE4D),IC50 [1] [µM],CELL KILLING EC50 (μM) Lung H82 (H82),CELL KILLING EC50 (μM) Breast MCF7 (MCF7),EC50 (SW480) [µM],EC50 (DU145; [2]) [µM],EC50 (HeLa; [3]) [µM],other results
"C=C(C)Cn1c(SCC(=O)c2cccs2)nc2sc3c(c2c1=O)CCCC3 [EGM, Eggmanone]",1.1,1.3,–,–,UnCh,UnCh,0.534,41.9,12.4,"Mode of inhibition (Lineweaver-Burk, Eadie Hofstee) (PDE4D3): competitive mode of inhibition; also recorded: acts in a competitive manner; Sonic hedgehog (SHH)-responsive Gli-luciferase reporter activity [1]: inhibited Sonic hedgehog (SHH)-responsive Gli-luciferase (Gli-Luc) reporter activity in a dose-dependent manner; Purmorphamine-induced Gli-Luc reporter activity [1]: inhibited purmorphamine (Purm, 3 μM)-induced Gli-Luc reporter activity in a dose-dependent manner; Hh-deficient mutant phenotype in embryos (zebrafish embryos): exhibited range of phenotypes found in Hh pathway mutants"
"C=C(C)Cn1c(SCC(=O)c2cccs2)nc2sc3c(c2c1=O)CCCC3 [Eggmanone, 3-(2-methylallyl)-2-((2-oxo-2-(thiophen-2-yl)ethyl)thio)-5,6,7,8-tetrahydrobenzo[4,5]thieno[2,3-d]pyrimidine-4(3H)-one]",–,–,0.89 µM and 0.893 µM,1.5,–,–,–,–,–,"Potency against PDE4D3 versus any tested PDE not of the PDE4 family (PDE4D3): at least 60 fold; Mode of inhibition (Lineweaver-Burk, Eadie Hofstee) (PDE4D3): exhibited a competitive mode of inhibition; Inhibition of super-short isoform PDE4D2 (PDE4D2): not inhibited; Sonic hedgehog (SHH)-responsive Gli-luciferase reporter activity [1]: inhibited Hh-inducible Gli-responsive luciferase (Gli-Luc) activity in a dose dependent manner; Sonic hedgehog (SHH)-responsive Gli-luciferase reporter activity ([1]; listed as eggmanone): inhibited Hh-inducible Gli-responsive luciferase (Gli-Luc) activity in a dose dependent manner; Purmorphamine-induced Gli-Luc reporter activity [1]: blocked Gli-Luc reporter and ptch1 induction by purmorphamine; Hh-deficient mutant phenotype in embryos (zebrafish embryos): caused a number of phenotypes resembling those of Hh-deficient mutant embryos; also recorded: exhibited range of phenotypes found in Hh pathway mutants; Hh-deficient mutant phenotype in embryos (zebrafish embryos; listed as eggmanone): caused a number of phenotypes resembling those of Hh-deficient mutant embryos"
CCCn1c(SCC(=O)c2cccs2)nc2sc3c(c2c1=O)CCCC3 [Formula 9e],–,–,–,–,–,–,–,–,–,"IC50 (PDE4D; mean ± SEM, normalized to DMSO): 0.486 ± 0.001 µM"
C=C(C)Cn1c(SCC(=O)c2ccccc2)nc2sc3c(c2c1=O)CCCC3 [Formula 9g],–,–,–,–,–,–,–,–,–,"IC50 (PDE4D; mean ± SEM, normalized to DMSO): 0.965 ± 0.1 µM"
C=C(C)Cn1c(SCC(=O)c2ccccc2)nc2sc3c(c2c1=O)CCCC3 [JEH-3-045-1],18,14,–,–,–,–,–,–,–,–
C=C(C)Cn1c(SCC(=O)c2ccncc2)nc2sc3c(c2c1=O)CCCC3 [JEH-3-048-1],24,16,16 µM,10,UnCh,UnCh,1.87,100,23.6,–

# Second part, led by results:
IC50 (PDE4D3) [µM],IC50 (PDE4D2) [µM],IC50 (PDE4D),IC50 [1] [µM],SMILES,CELL KILLING EC50 (μM) Lung H82 (H82),CELL KILLING EC50 (μM) Breast MCF7 (MCF7),EC50 (SW480) [µM],EC50 (DU145; [2]) [µM],EC50 (HeLa; [3]) [µM],other results
> 100,–,–,–,O=C(CSc1nc2sc3c(c2c(=O)n1C1CC1)CCCC3)c1cccs1 [JEH-3-039-2],–,–,–,–,–,"ZF Phenotype EC100 (zebrafish embryos; wild-type embryonic zebrafish, dosed 5 hpf): 0.1 µM"
> 100,> 100,–,–,C=CCn1c(SCC(=O)c2cccs2)nc2sc3c(c2c1=O)CCCC3 [JEH-3-039-3],UnCh,UnCh,3.63,71,36.9,–
23,4.9,4.9 µM,15,C=C(C)Cn1c(SCC(=O)c2ccccn2)nc2sc3c(c2c1=O)CCCC3 [JEH-3-063],UnCh,UnCh,8.05,0.684,9.18,"EC50 [1]: 10 to 20 µM; EC50 (DU145; DU-145, 72 h, read-out: EC50 (50% reduction of viable cell count at 72 hours), DU145, Human Prostate Adenocarcinoma): 0.684 µM; EC50 (HeLa; 72 h, read-out: EC50 (50% reduction of viable cell count at 72 hours), Human Cervical Adenocarcinoma): 9.2 µM"
15,6.4,–,–,C=C(C)Cn1c(SCC(=O)c2nccs2)nc2sc3c(c2c1=O)CCCC3 [JEH-3-069-1],UnCh,UnCh,6.92,47.5,100,EC50 [1]: 10 to 20 µM
